{"source": "paper PMC5729429", "about": "“Gimatecan exerts potent antitumor activity against gastric cancer in vitro and in vivo via AKT and MAPK signaling pathways” (Journal of Translational Medicine, 2017)", "key": {"HGC27 cells": {"test_system": "HGC27 cells", "assay": "Annexin V-PE/7-AAD apoptosis assay (flow cytometry), HGC27", "assay_type": "cell-based, human", "conditions": "1000 nM, 24 h", "procedure": "(§1) Apoptosis was measured by staining with phycoerythrin (PE)-annexin V and 7-amino-actinomycin (7-AAD) (BD Biosciences, Erembodegem, Belgium) for 15 min at room temperature in the dark, followed by flow cytometry (BD Biosciences) within 1 h. Apoptosis was analyzed with FlowJo 7.6 software (FlowJo, LLC, Ashland, Oregon).\nSupplementary file 12967_2017_1360_MOESM2_ESM.pdf: Additional file 2: Figure S2. Gimatecan induces apoptosis in HGC27 cell line. (A) Compared with irinotecan, gimatecan induced higher cell apoptosis in HGC27 cell. Cells were treated with gimatecan (0–1 µM) and irinotecan (0–1 µM) for 24 h and stained with Annexin V-PE/7-AAD. Sums of percentages of early apoptosis (Q3) and late apoptosis (Q2) were calculated as the total apoptosis ratios. (B) Pro- and anti-apoptotic proteins including Bcl-2, Bak, PARP and cleaved PARP were assessed by western-blotting in HGC27 cell. Western-blotting bands were quantified and normalized by ImageJ. All data are means ± SD of three independent experiments. *Compared with controls, p < 0.05; ns, p > 0.05."}, "[1]": {"test_system": "normal immortalized gastric epithelial cell line", "assay": "Growth inhibition of normal gastric epithelial cells", "assay_type": "cell-based", "conditions": "data not shown"}, "NCI-N87 cells": {"test_system": "NCI-N87 cells", "assay": "Annexin V-PE/7-AAD apoptosis assay (flow cytometry), NCI-N87", "assay_type": "cell-based, human", "conditions": "1000 nM, 24 h", "procedure": "as §1\nCells were treated with gimatecan (0–1 µM) and irinotecan (0–1 µM) for 24 h and stained with Annexin V-PE/7-AAD. Sums of percentages of early apoptosis (Q3) and late apoptosis (Q2) were calculated as the total apoptosis ratios. c, d Pro- and anti-apoptotic proteins including Bcl-2, Bak, PARP and cleaved PARP were assessed by western-blotting in SNU-1 and NCI-N87 cells. Western-blotting bands were quantified and normalized by ImageJ. […] They are left out because no substance is present, and they are also barely readable."}}, "data": [{"smiles": "CC[C@@]1(O)C(=O)OCc2c1cc1n(c2=O)Cc2c-1nc1ccccc1c2/C=N/OC(C)(C)C", "note": "[Gimatecan, 7-t-butoxyiminomethylcamptothecin]", "values": [{"measurement": "proportion of apoptotic cells", "setting": "HGC27 cells", "value": "14.27 ± 1.69", "unit": "%"}, {"measurement": "growth inhibition in normal cells", "setting": "[1]", "value": "weak growth inhibition"}, {"measurement": "proportion of apoptotic cells", "setting": "NCI-N87 cells", "value": "12.29 ± 2.24", "unit": "%"}]}]}
